Measured values published in patent US11963995B2, “Methods comprising desmopressin” (Ferring B.V., priority 2008, dated 2024).

Tests used:
[1] = tested on: adult patients with nocturia; test: Duration of total sleep time, change from baseline to Day 28 (Part I); format: in vivo, human; details: final visit (Day 28)
Description: All treatments were administered orally once per night approximately 1 hour prior to bedtime; subjects were instructed to limit their fluid intake prior to drug self-administration. […] Randomization was to be stratified by age (<65, ≥65 years) and by the absence/presence of nocturnal polyuria, defined as a ratio of nighttime urine volume/24-hour urine volume 33%. To achieve the desired number of subjects within each stratum, enrollment of subjects in a particular stratum (age and/or presence/absence of nocturnal polyuria) could be halted. If this was necessary, all investigative sites were to be informed in writing at least 1 week in advance to stop screening in a population of subjects.
The secondary efficacy endpoints were: (1) durability of effect achieved in Part I; (2) change in initial period of undisturbed sleep, defined as the elapsed time in minutes from going to bed with the intention of sleeping to the time of awakening for the first nocturnal void; and (3) change in duration of total sleep time. Additional secondary endpoints were collected, e.g., change in nocturia-specific quality of life as assessed by scores on the International Consultation on Incontinence Modular Questionnaire—Noctuira and the Noctuira Quality of Life Questionnaire, change in quality of sleep as assessed by the global score of the Pittsburgh Sleep Quality Index, and change in overall quality of life as assessed by the short form—12v2. A description of the additional secondary efficacy endpoints and their accompanying data are not provided herein.
Total sleep time increased in all treatment groups in Part I; however, no pattern was observed by dose of desmopressin. Based on F-tests of effects, computed overall sleep duration and reported overall sleep duration were statistically significant predictors of change from baseline to Day 28 in total sleep time (p<0.0001).

[2] = tested on: adult patients with nocturia; test: Long term nocturnal voids, change from baseline up to week 52 (Parts II/III); format: in vivo, human; details: for mean decrease in nocturnal voids per night at one year: Part III
Source text: To ensure that the study remained fully blinded during the full extent of both Parts I and II, re-randomization of subjects assigned to placebo after 4 weeks of treatment was predetermined at the time of initial randomization. […] The total treatment duration for each subject depended on when that subject was randomized in Part I and was estimated to be a minimum of 4 weeks and a maximum of 6 months. Upon completion of Part II of the study, subjects were given the option to participate in an open-label study with expected total treatment duration (double-blind extension plus open-label study) of at least 12 months (i.e., Part III). In Part III, subjects were assigned to the same treatment as in Part II, initially in a blinded manner. Subjects were unblinded and the study became open label only when all subjects in Parts I and II remaining in the study had entered Part III. During Part III, 10 μg was identified as a sub-therapeutic dose based on efficacy data from Part I. As a consequence, patients in the 10 μg treatment group were re-randomized (beginning Q4 2008) to one of the other treatment groups (i.e., 25 μg, 50 μg, or 100 μg). The total treatment duration was at least 12 months. A total of 508 patients entered the open-labeled extension (i.e., Part III). […] A summary of the changes from baseline is presented for all eligible subjects. […] However, based on the data below, the additional decreases in the number of voids can be characterized as clinically significant. As used here, “clinically significant” means a minimum worthwhile effect.

[3] = relative to vasopressin; cited from earlier work

SMILES: NC(=O)CC[C@@H]1NC(=O)[C@H](Cc2ccccc2)NC(=O)[C@H](Cc2ccc(O)cc2)NC(=O)CCSSC[C@@H](C(=O)N2CCC[C@H]2C(=O)N[C@H](CCCN=C(N)N)C(=O)NCC(N)=O)NC(=O)[C@H](CC(N)=O)NC1=O [desmopressin]
- Total Sleep Time, Calculated Sleep Time, Change from Baseline, Mean ([1]; 10 μg): 9.7 min
- Total Sleep Time, Calculated Sleep Time, Change from Baseline, Median ([1]; 10 μg): 10.0 min
- Total Sleep Time, Reported Sleep Time, Change from Baseline, Mean ([1]; 10 μg): 7.8 min
- Total Sleep Time, Reported Sleep Time, Change from Baseline, Median ([1]; 10 μg): 10.0 min
- Total Sleep Time, Calculated Sleep Time, Change from Baseline, Mean ([1]; 25 μg): 19.7 min
- Total Sleep Time, Calculated Sleep Time, Change from Baseline, Median ([1]; 25 μg): 15.3 min
- Total Sleep Time, Reported Sleep Time, Change from Baseline, Mean ([1]; 25 μg): 15.9 min
- Total Sleep Time, Reported Sleep Time, Change from Baseline, Median ([1]; 25 μg): 10.0 min
- Total Sleep Time, Calculated Sleep Time, Change from Baseline, Mean ([1]; 50 μg): 24.2 min
- Total Sleep Time, Calculated Sleep Time, Change from Baseline, Median ([1]; 50 μg): 14.2 min
- Total Sleep Time, Reported Sleep Time, Change from Baseline, Mean ([1]; 50 μg): 24.9 min
- Total Sleep Time, Reported Sleep Time, Change from Baseline, Median ([1]; 50 μg): 20.0 min
- Total Sleep Time, Calculated Sleep Time, Change from Baseline, Mean ([1]; 100 μg): 9.7 min
- Total Sleep Time, Calculated Sleep Time, Change from Baseline, Median ([1]; 100 μg): 12.0 min
- Total Sleep Time, Reported Sleep Time, Change from Baseline, Mean ([1]; 100 μg): 19.0 min
- Total Sleep Time, Reported Sleep Time, Change from Baseline, Median ([1]; 100 μg): 20.0 min
- mean decrease in nocturnal voids per night at one year ([2]; 25 μg, all eligible subjects): 1.4 voids per night
- Change from baseline of nocturnal voids, Mean ([2]; 25 μg, all eligible female subjects, Day 28): −1.26
- Change from baseline of nocturnal voids, Mean ([2]; 25 μg, all eligible female subjects, Week 8): −1.51
- Change from baseline of nocturnal voids, Mean ([2]; 25 μg, all eligible female subjects, Week 12): −1.66
- Change from baseline of nocturnal voids, Mean ([2]; 25 μg, all eligible female subjects, Week 20): −1.68
- Change from baseline of nocturnal voids, Mean ([2]; 25 μg, all eligible female subjects, Week 28): −1.86
- Change from baseline of nocturnal voids, Mean ([2]; 25 μg, all eligible female subjects, Week 52): −1.75
- Change from baseline of nocturnal voids, Mean ([2]; 25 μg, all eligible male subjects, Day 28): −0.76
- Change from baseline of nocturnal voids, Mean ([2]; 25 μg, all eligible male subjects, Week 8): −0.84
- Change from baseline of nocturnal voids, Mean ([2]; 25 μg, all eligible male subjects, Week 12): −0.90
- Change from baseline of nocturnal voids, Mean ([2]; 25 μg, all eligible male subjects, Week 20): −1.25
- Change from baseline of nocturnal voids, Mean ([2]; 25 μg, all eligible male subjects, Week 28): −1.15
- Change from baseline of nocturnal voids, Mean ([2]; 25 μg, all eligible male subjects, Week 52): −1.13
- Change from baseline of nocturnal voids, Mean ([2]; 25 μg, all eligible subjects, Day 28): −0.98
- Change from baseline of nocturnal voids, Mean ([2]; 25 μg, all eligible subjects, Week 8): −1.16
- Change from baseline of nocturnal voids, Mean ([2]; 25 μg, all eligible subjects, Week 12): −1.29
- Change from baseline of nocturnal voids, Mean ([2]; 25 μg, all eligible subjects, Week 20): −1.48
- Change from baseline of nocturnal voids, Mean ([2]; 25 μg, all eligible subjects, Week 28): −1.44
- Change from baseline of nocturnal voids, Mean ([2]; 25 μg, all eligible subjects, Week 52): −1.41
- Change from baseline of nocturnal voids, Mean ([2]; 25 μg, all subjects with or without an assessment at week 52, Day 28): −0.96
- Change from baseline of nocturnal voids, Mean ([2]; 25 μg, all subjects with or without an assessment at week 52, Week 12): −1.42
- Change from baseline of nocturnal voids, Mean ([2]; 25 μg, all subjects with or without an assessment at week 52, Week 20): −1.61
- Change from baseline of nocturnal voids, Mean ([2]; 25 μg, all subjects with or without an assessment at week 52, Week 28): −1.39
- Change from baseline of nocturnal voids, Mean ([2]; 25 μg, all subjects with or without an assessment at week 52, Week 52): −1.41
- Change from baseline of nocturnal voids, Mean ([2]; 25 μg, all subjects with or without an assessment at week 52, time printed as "Week" (between Day 28 and Week 12)): −1.31
- mean decrease in nocturnal voids per night at one year ([2]; 50 μg, all eligible subjects): 1.77 voids per night
- Change from baseline of nocturnal voids, Mean ([2]; 50 μg, all eligible female subjects, Day 28): −1.30
- Change from baseline of nocturnal voids, Mean ([2]; 50 μg, all eligible female subjects, Week 8): −1.60
- Change from baseline of nocturnal voids, Mean ([2]; 50 μg, all eligible female subjects, Week 12): −1.62
- Change from baseline of nocturnal voids, Mean ([2]; 50 μg, all eligible female subjects, Week 20): −1.93
- Change from baseline of nocturnal voids, Mean ([2]; 50 μg, all eligible female subjects, Week 28): −1.89
- Change from baseline of nocturnal voids, Mean ([2]; 50 μg, all eligible female subjects, Week 52): −1.95
- Change from baseline of nocturnal voids, Mean ([2]; 50 μg, all eligible male subjects, Day 28): −1.16
- Change from baseline of nocturnal voids, Mean ([2]; 50 μg, all eligible male subjects, Week 8): −1.31
- Change from baseline of nocturnal voids, Mean ([2]; 50 μg, all eligible male subjects, Week 12): −1.30
- Change from baseline of nocturnal voids, Mean ([2]; 50 μg, all eligible male subjects, Week 20): −1.73
- Change from baseline of nocturnal voids, Mean ([2]; 50 μg, all eligible male subjects, Week 28): −1.28
- Change from baseline of nocturnal voids, Mean ([2]; 50 μg, all eligible male subjects, Week 52): −1.69
- Change from baseline of nocturnal voids, Mean ([2]; 50 μg, all eligible subjects, Day 28): −1.22
- Change from baseline of nocturnal voids, Mean ([2]; 50 μg, all eligible subjects, Week 8): −1.44
- Change from baseline of nocturnal voids, Mean ([2]; 50 μg, all eligible subjects, Week 12): −1.44
- Change from baseline of nocturnal voids, Mean ([2]; 50 μg, all eligible subjects, Week 20): −1.80
- Change from baseline of nocturnal voids, Mean ([2]; 50 μg, all eligible subjects, Week 28): −1.55
- Change from baseline of nocturnal voids, Mean ([2]; 50 μg, all eligible subjects, Week 52): −1.80
- Change from baseline of nocturnal voids, Mean ([2]; 50 μg, all subjects with or without an assessment at week 52, Week 12): −1.51
- Change from baseline of nocturnal voids, Mean ([2]; 50 μg, all subjects with or without an assessment at week 52, Week 20): −1.71
- Change from baseline of nocturnal voids, Mean ([2]; 50 μg, all subjects with or without an assessment at week 52, Week 28): −1.55
- Change from baseline of nocturnal voids, Mean ([2]; 50 μg, all subjects with or without an assessment at week 52, Week 52): −1.80
- Change from baseline of nocturnal voids, Mean ([2]; 50 μg, all subjects with or without an assessment at week 52, time printed as "Day" (after Day 0)): −1.10
- Change from baseline of nocturnal voids, Mean ([2]; 50 μg, all subjects with or without an assessment at week 52, time printed as "Week" (before Week 12)): −1.43
- mean decrease in nocturnal voids per night at one year ([2]; 100 μg, all eligible subjects): 2.11 voids per night
- Change from baseline of nocturnal voids, Mean ([2]; 100 μg, all eligible female subjects, Day 28): −1.50
- Change from baseline of nocturnal voids, Mean ([2]; 100 μg, all eligible female subjects, Week 8): −1.69
- Change from baseline of nocturnal voids, Mean ([2]; 100 μg, all eligible female subjects, Week 12): −1.79
- Change from baseline of nocturnal voids, Mean ([2]; 100 μg, all eligible female subjects, Week 20): −1.98
- Change from baseline of nocturnal voids, Mean ([2]; 100 μg, all eligible female subjects, Week 28): −1.75
- Change from baseline of nocturnal voids, Mean ([2]; 100 μg, all eligible female subjects, Week 52): −2.11
- Change from baseline of nocturnal voids, Mean ([2]; 100 μg, all eligible male subjects, Day 28): −1.31
- Change from baseline of nocturnal voids, Mean ([2]; 100 μg, all eligible male subjects, Week 8): −1.52
- Change from baseline of nocturnal voids, Mean ([2]; 100 μg, all eligible male subjects, Week 12): −1.89
- Change from baseline of nocturnal voids, Mean ([2]; 100 μg, all eligible male subjects, Week 20): −1.92
- Change from baseline of nocturnal voids, Mean ([2]; 100 μg, all eligible male subjects, Week 28): −1.92
- Change from baseline of nocturnal voids, Mean ([2]; 100 μg, all eligible male subjects, Week 52): −2.12
- Change from baseline of nocturnal voids, Mean ([2]; 100 μg, all eligible subjects, Day 28): −1.406
- Change from baseline of nocturnal voids, Mean ([2]; 100 μg, all eligible subjects, Week 8): −1.61
- Change from baseline of nocturnal voids, Mean ([2]; 100 μg, all eligible subjects, Week 12): −1.83
- Change from baseline of nocturnal voids, Mean ([2]; 100 μg, all eligible subjects, Week 20): −1.95
- Change from baseline of nocturnal voids, Mean ([2]; 100 μg, all eligible subjects, Week 28): −1.83
- Change from baseline of nocturnal voids, Mean ([2]; 100 μg, all eligible subjects, Week 52): −2.11
- Change from baseline of nocturnal voids, Mean ([2]; 100 μg, all subjects with or without an assessment at week 52, Day 28): −1.31
- Change from baseline of nocturnal voids, Mean ([2]; 100 μg, all subjects with or without an assessment at week 52, Week 8): −1.47
- Change from baseline of nocturnal voids, Mean ([2]; 100 μg, all subjects with or without an assessment at week 52, Week 12): −1.73
- Change from baseline of nocturnal voids, Mean ([2]; 100 μg, all subjects with or without an assessment at week 52, Week 20): −1.86
- Change from baseline of nocturnal voids, Mean ([2]; 100 μg, all subjects with or without an assessment at week 52, Week 52): −2.11
- Change from baseline of nocturnal voids, Mean ([2]; 100 μg, all subjects with or without an assessment at week 52, time printed as "Week" (between Week 20 and Week 52)): −1.80
- antidiuretic-to-vasopressor ratio, greater than vasopressin [3]: 3000 fold
